# Counter-ions that a name gives are not always drawn. Like-named read-outs stand apart in the source and are kept apart here.
# Columns and labels:
# BSEP [1] = system: BSEP
# icHep = details: for intracellular amount on DFP treatment: not told
# BSEP [2] = system: BSEP; parameters: method as in PMID 23877105; details: SCHs; cited from earlier work
# P-gp = P-gp (Homo sapiens, UniProt P08183); details: two donors (HUM181001B), 1 μCi/ml, 120 min
# Description: The cells were incubated in a 37°C water bath, and 200 μl of TB was collected from the lower chamber (bile side) at 30, 60, 90, and 120 min. An equal amount of TB was immediately added after every sampling point. […] The apparent permeability coefficient Papp (cm/s) was estimated using Eq. (2). Here, Q, A, and C0 indicate the recovered amount of the compound on the bile side, the surface area of the insert membrane (0.3 cm^2), and the initial concentration of the substrate, respectively.2 Papp=dQ/dt/(A×C0)
# [3] = Reported human in vivo biliary excretion clearance and intrinsic clearance estimated from it (Eq. 4)
# [4] = system: sandwich-cultured PXB-cells; details: human, 1 μM
# [5] = icHep permeation assay (sinusoidal to bile side) to estimate drug biliary excretion clearance; details: human
# [6] = cited from earlier work; for Rb: blood/plasma concentration ratio
# in vitro = details: human, Biliary excretion clearance, observed, CLbile, int
# [7] = human, cited from earlier work
# [8] = cited from earlier work
# BSEP [9] = details: cited from earlier work
# MRP2 [10] = target: T1, MRP2 (Homo sapiens, UniProt Q92887); assay: MRP2-mediated biliary transport of CDF (CDFDA permeation assay); details: benzbromarone 100 μM, icHep
# T1 sequence (Q92887 whole entry): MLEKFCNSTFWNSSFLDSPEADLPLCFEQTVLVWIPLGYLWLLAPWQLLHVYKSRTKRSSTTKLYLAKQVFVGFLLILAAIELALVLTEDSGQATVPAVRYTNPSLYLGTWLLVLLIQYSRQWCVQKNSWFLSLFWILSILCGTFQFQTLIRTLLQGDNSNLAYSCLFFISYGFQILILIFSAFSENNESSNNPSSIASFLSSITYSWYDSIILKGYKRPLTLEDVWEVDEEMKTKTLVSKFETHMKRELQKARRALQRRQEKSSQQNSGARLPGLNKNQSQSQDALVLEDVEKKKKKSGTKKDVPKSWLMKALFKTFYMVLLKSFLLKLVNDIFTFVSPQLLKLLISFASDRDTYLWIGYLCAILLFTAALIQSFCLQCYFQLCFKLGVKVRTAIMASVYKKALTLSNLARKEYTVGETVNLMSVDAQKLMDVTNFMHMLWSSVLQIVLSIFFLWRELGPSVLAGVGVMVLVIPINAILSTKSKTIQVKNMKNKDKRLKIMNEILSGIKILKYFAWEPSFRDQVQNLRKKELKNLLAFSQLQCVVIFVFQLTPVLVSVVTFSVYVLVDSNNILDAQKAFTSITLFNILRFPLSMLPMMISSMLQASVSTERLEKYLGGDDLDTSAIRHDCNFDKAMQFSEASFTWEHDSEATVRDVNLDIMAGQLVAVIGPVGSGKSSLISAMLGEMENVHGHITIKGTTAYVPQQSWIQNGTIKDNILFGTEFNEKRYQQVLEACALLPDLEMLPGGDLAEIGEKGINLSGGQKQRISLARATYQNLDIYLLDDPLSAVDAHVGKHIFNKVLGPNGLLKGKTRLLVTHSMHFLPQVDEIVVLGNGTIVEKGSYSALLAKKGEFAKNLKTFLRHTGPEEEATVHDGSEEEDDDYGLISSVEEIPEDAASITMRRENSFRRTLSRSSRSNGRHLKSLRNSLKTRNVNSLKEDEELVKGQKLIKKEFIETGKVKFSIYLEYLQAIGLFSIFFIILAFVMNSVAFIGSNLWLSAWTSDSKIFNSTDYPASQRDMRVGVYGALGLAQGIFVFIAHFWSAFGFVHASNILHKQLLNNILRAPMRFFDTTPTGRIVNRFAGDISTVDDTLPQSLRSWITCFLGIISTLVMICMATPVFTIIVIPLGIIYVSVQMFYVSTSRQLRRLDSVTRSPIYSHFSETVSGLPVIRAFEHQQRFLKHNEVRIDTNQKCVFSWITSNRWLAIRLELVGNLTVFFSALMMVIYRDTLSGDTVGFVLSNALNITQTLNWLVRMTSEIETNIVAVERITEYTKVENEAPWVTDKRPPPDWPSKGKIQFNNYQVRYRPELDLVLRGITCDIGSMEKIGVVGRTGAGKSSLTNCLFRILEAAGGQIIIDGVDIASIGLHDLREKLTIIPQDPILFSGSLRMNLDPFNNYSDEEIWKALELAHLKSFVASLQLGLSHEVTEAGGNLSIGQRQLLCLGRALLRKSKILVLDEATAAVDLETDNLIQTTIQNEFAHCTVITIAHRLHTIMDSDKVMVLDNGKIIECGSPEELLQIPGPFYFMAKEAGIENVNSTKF
# OATP1B1 = target: T2, OATP1B1 (Homo sapiens, UniProt Q9Y6L6)
# T2 sequence (Q9Y6L6 1-691): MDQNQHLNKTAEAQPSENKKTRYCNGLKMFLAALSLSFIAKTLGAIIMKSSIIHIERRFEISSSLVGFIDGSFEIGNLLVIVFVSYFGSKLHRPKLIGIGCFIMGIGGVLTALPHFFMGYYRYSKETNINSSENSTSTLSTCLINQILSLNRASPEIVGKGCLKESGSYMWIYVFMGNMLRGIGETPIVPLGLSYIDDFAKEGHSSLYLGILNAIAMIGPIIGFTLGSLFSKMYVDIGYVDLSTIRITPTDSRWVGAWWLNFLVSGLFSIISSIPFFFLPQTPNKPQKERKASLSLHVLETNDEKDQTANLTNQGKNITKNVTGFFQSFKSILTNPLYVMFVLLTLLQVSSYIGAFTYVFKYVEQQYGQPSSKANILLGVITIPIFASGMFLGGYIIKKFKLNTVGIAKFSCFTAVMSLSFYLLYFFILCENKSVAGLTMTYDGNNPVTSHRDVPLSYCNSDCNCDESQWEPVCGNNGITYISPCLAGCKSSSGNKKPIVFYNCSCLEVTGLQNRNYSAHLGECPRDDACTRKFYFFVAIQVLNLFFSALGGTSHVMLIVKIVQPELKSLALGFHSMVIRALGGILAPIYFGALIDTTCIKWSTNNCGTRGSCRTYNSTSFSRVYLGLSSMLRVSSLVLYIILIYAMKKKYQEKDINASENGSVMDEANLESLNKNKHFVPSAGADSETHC
# MRP2 [11] = target: T1, MRP2; details: not told
# CYP1A2 = CYP1A2 (Homo sapiens, UniProt P05177)
# Chain of CYP1A2 (P05177 whole entry): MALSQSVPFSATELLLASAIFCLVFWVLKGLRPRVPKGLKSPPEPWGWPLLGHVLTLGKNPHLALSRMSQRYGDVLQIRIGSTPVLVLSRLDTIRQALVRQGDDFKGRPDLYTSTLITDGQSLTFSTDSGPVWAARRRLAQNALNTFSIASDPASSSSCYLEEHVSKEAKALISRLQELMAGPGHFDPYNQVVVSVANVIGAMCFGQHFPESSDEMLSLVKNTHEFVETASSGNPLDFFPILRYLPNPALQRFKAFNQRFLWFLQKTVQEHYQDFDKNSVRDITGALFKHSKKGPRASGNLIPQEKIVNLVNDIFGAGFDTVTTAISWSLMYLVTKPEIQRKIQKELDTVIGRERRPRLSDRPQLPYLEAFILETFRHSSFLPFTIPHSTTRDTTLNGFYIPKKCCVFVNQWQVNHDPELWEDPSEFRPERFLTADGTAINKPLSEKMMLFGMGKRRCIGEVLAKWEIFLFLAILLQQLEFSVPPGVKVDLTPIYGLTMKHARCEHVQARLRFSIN
# [12] = estimated from observed CLbile with fp, Rb, Qh 1400 ml/min
# [13] = estimated from observed in vivo CLbile with fp, Rb and Qh 1400 ml/min
# [14] = Biliary excretion clearance, in vitro, observed, CLbile, int, icHep (HUM181001B), CLbile,app of icHep minus control cells
# [15] = reported in vivo biliary excretion clearance
# [16] = unbound fraction of the plasma protein
# [17] = unbound fraction, reported value
# Chain of P-gp (P08183 whole entry): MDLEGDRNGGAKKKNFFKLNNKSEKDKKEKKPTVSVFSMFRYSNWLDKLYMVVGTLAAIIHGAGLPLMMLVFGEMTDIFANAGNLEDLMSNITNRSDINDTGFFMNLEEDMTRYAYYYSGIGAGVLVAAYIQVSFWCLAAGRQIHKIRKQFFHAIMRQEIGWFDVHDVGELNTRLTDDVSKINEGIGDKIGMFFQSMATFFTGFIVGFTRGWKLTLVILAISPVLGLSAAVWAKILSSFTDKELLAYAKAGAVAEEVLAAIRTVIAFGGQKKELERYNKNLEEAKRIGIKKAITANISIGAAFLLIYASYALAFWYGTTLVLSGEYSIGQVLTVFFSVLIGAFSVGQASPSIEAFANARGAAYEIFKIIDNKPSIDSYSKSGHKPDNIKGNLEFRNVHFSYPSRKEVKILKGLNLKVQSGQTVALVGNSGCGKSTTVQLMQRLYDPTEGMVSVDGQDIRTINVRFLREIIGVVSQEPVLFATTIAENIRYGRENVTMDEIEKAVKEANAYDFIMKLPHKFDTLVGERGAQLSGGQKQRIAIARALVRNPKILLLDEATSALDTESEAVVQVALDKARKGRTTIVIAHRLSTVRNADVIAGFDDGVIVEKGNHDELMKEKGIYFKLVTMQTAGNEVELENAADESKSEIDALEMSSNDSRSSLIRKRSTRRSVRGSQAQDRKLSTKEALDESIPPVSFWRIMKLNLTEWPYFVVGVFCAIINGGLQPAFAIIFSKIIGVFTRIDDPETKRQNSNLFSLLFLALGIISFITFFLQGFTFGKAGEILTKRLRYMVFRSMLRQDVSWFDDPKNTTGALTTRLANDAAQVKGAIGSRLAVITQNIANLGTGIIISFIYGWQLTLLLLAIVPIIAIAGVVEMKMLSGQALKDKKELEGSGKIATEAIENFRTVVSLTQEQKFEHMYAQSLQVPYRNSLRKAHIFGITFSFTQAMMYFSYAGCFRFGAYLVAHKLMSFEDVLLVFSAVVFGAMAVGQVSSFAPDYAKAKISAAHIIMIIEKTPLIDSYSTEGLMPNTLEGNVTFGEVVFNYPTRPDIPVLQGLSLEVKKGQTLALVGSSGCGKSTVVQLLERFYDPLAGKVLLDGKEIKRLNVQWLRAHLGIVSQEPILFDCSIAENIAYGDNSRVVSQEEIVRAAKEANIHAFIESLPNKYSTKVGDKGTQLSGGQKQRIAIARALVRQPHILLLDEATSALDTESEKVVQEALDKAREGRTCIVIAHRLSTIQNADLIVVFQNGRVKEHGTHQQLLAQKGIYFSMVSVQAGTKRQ
smiles,measurement,setting,value
"CCOc1nc2cccc(C(=O)OC(C)OC(=O)OC3CCCCC3)c2n1Cc1ccc(-c2ccccc2-c2nnn[nH]2)cc1 (stereo not shown) [CIL, candesartan cilexetil]",effect on biliary excretion clearance of taurocholate,BSEP [1],decreased
same,effect on biliary excretion clearance of BSEP substrate taurocholate,"BSEP [1]; CIL (10 μM) alone, taurocholate 1 μM, 120 min",did not affect
same,effect on intracellular accumulation of taurocholate,icHep,increased
same,intracellular amount on DFP treatment,icHep,increased
same,BSEP inhibition,BSEP [2],inhibited
"C[C@H]1O[C@@H](O[C@H]2[C@@H](O)C[C@H](O[C@H]3[C@@H](O)C[C@H](O[C@H]4CC[C@@]5(C)[C@H](CC[C@@H]6[C@@H]5C[C@@H](O)[C@]5(C)[C@@H](C7=CC(=O)OC7)CC[C@]65O)C4)O[C@@H]3C)O[C@@H]2C)C[C@H](O)[C@@H]1O [Digoxin, digoxin]",permeability to the bile side in icHep compared to the control,P-gp,significantly increased
same,"Observed in vivo CLbile, int",[3]; [12],154 mL/min
same,"Observed in vivo CLbile, int",[3]; [13],154 mL/min
same,BEI (%) Mean,[4]; 2 min,21.9%
same,"Predicted in vivo CLbile, int, Mean",[4]; 2 min,703 mL/min
same,BEI (%) Mean,[4]; 5 min,28.3%
same,"Predicted in vivo CLbile, int, Mean",[4]; 5 min,410 mL/min
same,BEI (%) Mean,[4]; 10 min,44.9%
same,"Predicted in vivo CLbile, int, Mean",[4]; 10 min,439 mL/min
same,BEI (%) Mean,[4]; 20 min,37.1%
same,"Predicted in vivo CLbile, int, Mean",[4]; 20 min,152 mL/min
"CCOc1ccc2ccccc2c1C(=O)N[C@@H]1C(=O)N2[C@@H]1SC(C)(C)[C@@H]2C(=O)O [Nafcillin, nafcillin]",hepatocyte CLint at 1 μM,[5]; [14],1.07 ± 0.14 µL/min/1e6 cells
same,Rb,[6]; reported value,0.55
same,Rb,[6],0.55
same,"Rb, blood/plasma concentration ratio",[6]; reported value,0.55[43]
same,"Observed in vivo CLbile, int",[3]; [12],1213 mL/min
same,"Observed in vivo CLbile, int",[3]; [13],1213 mL/min
same,hepatocyte CLint at 1 μM,in vitro,2.22 ± 1.01 µL/min/1e6 cells
same,Observed in vivo CLbile,[7]; [15],125 mL/min
same,Observed in vivo CLbile,[7]; reported value,125 mL/min
same,BEI (%) Mean,[4]; 2 min,57.4%
same,"Predicted in vivo CLbile, int, Mean",[4]; 2 min,3401 mL/min
same,BEI (%) Mean,[4]; 5 min,42.7%
same,"Predicted in vivo CLbile, int, Mean",[4]; 5 min,1026 mL/min
same,BEI (%) Mean,[4]; 10 min,40.6%
same,"Predicted in vivo CLbile, int, Mean",[4]; 10 min,340 mL/min
same,BEI (%) Mean,[4]; 20 min,70.9%
same,"Predicted in vivo CLbile, int, Mean",[4]; 20 min,608 mL/min
same,"fp, unbound fraction of the plasma protein",[8]; reported value,0.123[43]
same,fp,[8]; [16],0.123
same,fp,[8]; [17],0.123
Cc1c(C)c2c(c(C)c1O)CCC(C)(COc1ccc(CC3SC(=O)NC3=O)cc1)O2 (stereo not shown) [troglitazone],IC50,BSEP [9],2.3 µM
"CCOc1nc2cccc(C(=O)O)c2n1Cc1ccc(-c2ccccc2-c2nnn[nH]2)cc1 [CAN, candesartan]",intracellular amount on DFP treatment,icHep,decreased
same,BSEP inhibition,BSEP [2],not
CCc1oc2ccccc2c1C(=O)c1cc(Br)c(O)c(Br)c1 [benzbromarone],effect of MRP2 inhibitor on the increased appearance of CDF on the bile side,MRP2 [10],reduced this increase to the same level as the control group
C[C@]12CC[C@@H]3c4ccc(O)cc4CC[C@H]3[C@@H]1CC[C@@H]2O[C@@H]1O[C@H](C(=O)O)[C@@H](O)[C@H](O)[C@H]1O [E217βG],difference in OATP1B1 substrate uptake clearance between two donors,OATP1B1,2.85 fold
same,permeability to the bile side in icHep compared to the control,MRP2 [11],significantly increased
Cc1c(C)c2c(c(C)c1OS(=O)(=O)O)CCC(C)(COc1ccc(CC3SC(=O)NC3=O)cc1)O2 (stereo not shown) [troglitazone sulfate],IC50,BSEP [9],4.2 µM
"CN(Cc1cnc2nc(N)nc(N)c2n1)c1ccc(C(=O)N[C@@H](CCC(=O)O)C(=O)O)cc1 [Methotrexate, methotrexate]",hepatocyte CLint at 1 μM,[5],1.11 ± 0.217 µL/min/1e6 cells
same,hepatocyte CLint at 1 μM,[5]; [14],0.73 ± 0.268 µL/min/1e6 cells
same,Rb,[6]; reported value,0.79
same,Rb,[6],0.79
same,"Observed in vivo CLbile, int",[3]; [12],90.0 mL/min
same,"Observed in vivo CLbile, int",[3]; [13],90.0 mL/min
same,Observed in vivo CLbile,[7]; [15],39.9 mL/min
same,Observed in vivo CLbile,[7]; reported value,39.9 mL/min
same,"Predicted in vivo CLbile, int, Mean",[4]; 2 min,700 mL/min
same,BEI (%) Mean,[4]; 5 min,14.8%
same,"Predicted in vivo CLbile, int, Mean",[4]; 5 min,179 mL/min
same,BEI (%) Mean,[4]; 10 min,18.9%
same,"Predicted in vivo CLbile, int, Mean",[4]; 10 min,126 mL/min
same,"Predicted in vivo CLbile, int, Mean",[4]; 20 min,172 mL/min
same,"fp, unbound fraction of the plasma protein",[8]; reported value,0.46[40]
same,fp,[8]; [16],0.46
same,fp,[8]; [17],0.46
CC(=O)Nc1ccc(O)cc1 [Acetaminophen],"Enzyme activity, Mean",CYP1A2,0.950 pmol/min/106 cells

# Reference: article PMC10444810, “Induction of open-form bile canaliculus formation by hepatocytes for evaluation of biliary drug excretion” (Communications Biology, 2023)
